Experimental findings from patent publication US10828301B2, “2,4-pyrimidinediamine compounds and their uses” (Rigel Pharmaceuticals, Inc, priority 2002, dated 2020) are described below.

Common to all, as to format: cell-based
Test [1] deals with ionophore-induced degranulation of mast and/or basophil cells. Kind of test: Ionophore (ionomycin or A23187)-induced degranulation counter screen. Conditions: Mus musculus; high density BMMC, ionomycin activation, hexosaminidase release; read-out: BMMC Ionomycin Hexos. IC50. An outline of the steps:
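Mast and/or basophil cell degranulation assays run as for the IgE-triggered formats, but cells are stimulated with calcium ionophore ionomycin or A23187 instead of anti-IgE or allergen. Ionophore bypasses early FcεRI/FcγRI signalling, so the IC50 serves as a counter screen.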
In general terms: A counterscreen serves to expose hits that act by an unwanted route or on another target.

For test [2], the system named is cultured human mast cells (CHMC). In words: CHMC low cell density ionomycin activation: tryptase assay. The note with it: Homo sapiens, Mast cell, Low Density CHMC, ionomycin activation.
Test [3] shares this test system. Kind of test: CHMC high cell density IgE activation: degranulation (hexos, tryptase, histamine), leukotriene (LTC4) and cytokine (TNFalpha, IL-13) assays. Conditions: anti-IgE activation. An outline of the steps: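 IgE-sensitized CHMC at 1-2×10^6 cells/ml in MT buffer were pretreated with compound for 1 h at 37 °C (0.5% DMSO final), then stimulated with anti-IgE for 1 h. Tryptase was measured in 1:500-diluted supernatant. Pellets were re-incubated for 7 h with compound in CM media, and supernatants were assayed by ELISA.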

The test system of another test is Jurkat cells. In words: Jurkat (T-cell) toxicity, light scatter. Conditions: Homo sapiens, 18-24 hr, flow cytometric light scatter, read-out: Toxicity Jurkat Light Scat. On the procedure: Dilute Jurkat cells to 2×10^5 cells/ml in complete RPMI (10% heat-inactivated fetal bovine serum) media and incubate at 37° C., 5% CO2 for 18 hours. Add 65 ul cells at 7.7×10^5 cells/ml to a 96-well V-bottom plate (TC-treated, Costar) containing 65 ul 2× compound (final vehicle concentration is 0.5% DMSO, 1.5% MeOH). Mix, incubate plates for 18-24 hr at 37° C., 5% CO2. Toxicity was assessed by flow cytometric analysis of cellular light scatter
On the technique in general: A flow cytometer gives signals particle by particle.

Test [4] has as its system basophils in whole human peripheral blood. Kind of test: Basophil ionomycin activation: histamine release assay. The note with it: Homo sapiens. On the procedure: Assays for ionomycin-induced basophil cell degranulation were carried out as described for the Basophil IgE or Dustmite Activation Assay (Section 6.4.6, supra), with the exception that following incubation with compound, cells were stimulated with 20 μl of 2 μM ionomycin.

Test [5] has the same test system. In words: Basophil IgE activation: histamine release assay. Conditions: Homo sapiens, anti-IgE activation. An outline of the steps: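 Dextran-sedimented whole blood from dust-mite-allergic human donors, resuspended in MT-buffer with 0.5% DMSO and preincubated with 8 compound concentrations in triplicate. Cells stimulated 30 min at 37 °C. Histamine released into the supernatant measured by ELISA.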

In the next test the test system is B-cell line BJAB. Kind of test: BJAB (B-cell) toxicity, light scatter. The note with it: Homo sapiens; BJAB B-cells, flow cytometric light scatter; read-out: Toxicity BJAB Light Scat. On the procedure: The B-cell line BJAB was cultured in log phase in RPMI1640+10% heat-inactivated fetal bovine serum, lx L-glutamine, lx penicillin, lx […] and 1× beta-mercaptoethanol at 37° C., 5% CO2. First, BJABs were harvested, spun and resuspended in culture medium to a concentration of 7.7×10^5 cells/mL. 65 uL cells were mixed with 65 uL compound, in duplicate and in the presence of 0.1% DMSO in a V-bottomed 96-well tissue culture plate. Cells were incubated with compound at various dilutions at 37° C., 5% CO2. Toxicity was assessed by flow cytometric analysis of cellular light scatter.

The mark [6] stands for this setting: hexosaminidase readout, read-out: CHMC Ionomycin Hexos.
Where [7] appears, read: IL-13, read-out: CHMC high density IL-13.
Setting [8] is: LTC4, read-out: CHMC high density LTC4.
[9] abbreviates: TNF-alpha, read-out: CHMC high density TNF-alpha.
Setting [10] is: hexosaminidase release, read-out: CHMC high density hexos.
Setting [11] is: histamine release, read-out: CHMC high density histamine.
Where [12] appears, read: tryptase release, read-out: CHMC high density tryptase.
The mark [13] stands for this setting: tryptase readout, read-out: CHMC Ionomycin Tryptase.

Molecules are shown by their SMILES.

Take `COc1ccc(Nc2ncc(F)c(Nc3cccc(O)c3)n2)cc1OC` [Compound R926113, N2-(3,4-Dimethoxyphenyl)-5-fluoro-N4-(3-hydroxyphenyl)-2,4-pyrimidinediamine]: the IC50 in test [1] was greater than 10000 nM; in test [2] (setting [6]), greater than 10000 nM; in test [3] (setting [7]) it was 3570 nM; in test [3] (setting [8]), 468 nM; in test [3] (setting [9]), 5680 nM; in test [3] (setting [10]), 1450 nM. Further, the IC50 in test [3] (setting [11]) was 1850 nM; in test [3] (setting [12]) it was 1650 nM; with Jurkat cells, greater than 10000 nM; in test [4], greater than 10000 nM; in test [5], 270 nM; with B-cell line BJAB, greater than 10000 nM.
For the compound `Fc1cnc(Nc2ccc3c(c2)OCCO3)nc1Nc1ccc2c(c1)OCCO2` [Compound R926109, N2,N4-Bis(3,4-ethylenedioxyphenyl)-5-fluoro-2,4-pyrimidinediamine], the IC50 in test [1] is 3200 nM; in test [2] (setting [6]) it was greater than 10000 nM; in test [2] (setting [13]), 5500 nM; in test [3] (setting [7]), 1660 nM; in test [3] (setting [8]), 808 nM; in test [3] (setting [9]) it was 1500 nM. Besides, the IC50 in test [3] (setting [10]) was 783 nM; in test [3] (setting [11]) it was 1830 nM; in test [3] (setting [12]), 906 nM; in the test with Jurkat cells, greater than 10000 nM; in test [4], greater than 10000 nM; in test [5] it was 150 nM. The IC50 in the test with B-cell line BJAB is greater than 10000 nM.
As for `Oc1cccc(Nc2ncc(F)c(Nc3cccc(O)c3)n2)c1` [Compound R921218, N2,N4-Bis(3-hydroxyphenyl)-5-fluoro-2,4-pyrimidinediamine], the IC50 in test [1] was greater than 10000 nM; in test [2] (setting [6]), greater than 10000 nM; in test [2] (setting [13]) it was greater than 10000 nM; in test [3] (setting [7]), 2080 nM; in test [3] (setting [8]) it was 695 nM; in test [3] (setting [9]), 1750 nM. The IC50 is 464 nM in test [3] (setting [10]); 463 nM in test [3] (setting [11]); 647 nM in test [3] (setting [12]); greater than 10000 nM in the test with Jurkat cells; greater than 10000 nM in test [4]; 240 nM in test [5]. Further, the IC50 in the test on B-cell line BJAB is greater than 10000 nM.
